Measured values reported in US20260262643A1, “HERBICIDAL BENZOXAZINES” (FMC CORPORATION, priority 2022, published 2026).

What was measured:
kochia [1] = test: Test C preemergence; format: in vivo, Bassia scoparia; details: 0 to 100 scale (0 no effect, 100 complete control)
In short: (§1)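 Soil-applied (pre) and foliar (post, 1–2 leaf, 2–10 cm) sprays; surfactant-containing non-phytotoxic solvent vehicle; loam/sand substrate. Readout: visual % control at 10 d, greenhouse, versus untreated.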

ryegrass, Italian [2] = test: Test C postemergence; format: in vivo, Lolium multiflorum; details: 10 days
In short: as §1

barnyardgrass [3] = test: Test C postemergence; format: in vivo, Echinochloa crusgalli; details: 10 days
In short: as §1

pigweed, palmer [4] = test: Test C preemergence; format: in vivo, Amaranthus palmeri; details: 0 to 100 scale (0 no effect, 100 complete control)
In short: as §1

barnyardgrass [5] = test: Test D flooded paddy test; format: in vivo, Echinochloa crus-galli; details: 250 g ai/ha, applied to paddy water, visual rating after 13 to 14 days, scale 0 to 100 (0 no effect, 100 complete control)
In short: (§2)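 Seedlings reached the 2-leaf stage, then pots were flooded to 3 cm over the soil surface. Compound was applied into the water, depth was maintained, and plants stayed in the greenhouse 13 to 14 days before visual scoring (0–100) relative to controls.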

green foxtail [6] = test: Test C postemergence; format: in vivo, Setaria viridis; details: 10 days
In short: as §1

galium = test: Test C postemergence; format: in vivo, Galium aparine; details: 125 g ai/ha, postemergence, 10 days; 0 to 100 scale, 0 no effect, 100 complete control
In short: as §1

sedge, umbrella = test: Test D flooded paddy test; format: in vivo, Cyperus difformis; details: 250 g ai/ha, applied to paddy water, visual rating after 13 to 14 days, scale 0 to 100 (0 no effect, 100 complete control)
In short: as §2

blackgrass [7] = test: Test C postemergence; format: in vivo, Alopecurus myosuroides; details: 10 days
In short: as §1

ragweed [8] = test: Test C postemergence; format: in vivo, Ambrosia artemisiifolia; details: 10 days
In short: as §1

oat, wild [9] = test: Test C preemergence; format: in vivo, Avena fatua; details: 0 to 100 scale (0 no effect, 100 complete control)
In short: as §1

ragweed [10] = test: Test C preemergence; format: in vivo, Ambrosia artemisiifolia; details: 0 to 100 scale (0 no effect, 100 complete control)
In short: as §1

kochia [11] = test: Test C postemergence; format: in vivo, Bassia scoparia; details: 10 days
In short: as §1

barnyardgrass [12] = test: Test C preemergence; format: in vivo, Echinochloa crusgalli; details: 0 to 100 scale (0 no effect, 100 complete control)
In short: as §1

horseweed = test: Test C postemergence; format: in vivo, Erigeron canadensis; details: 10 days
In short: as §1

pigweed, palmer [13] = test: Test C postemergence; format: in vivo, Amaranthus palmeri; details: 10 days
In short: as §1

blackgrass [14] = test: Test C preemergence; format: in vivo, Alopecurus myosuroides; details: 0 to 100 scale (0 no effect, 100 complete control)
In short: as §1

wheat [15] = test: Test C postemergence; format: in vivo, Triticum aestivum; details: 10 days
In short: as §1

green foxtail [16] = test: Test C preemergence; format: in vivo, Setaria viridis; details: 0 to 100 scale (0 no effect, 100 complete control)
In short: as §1

rice = test: Test D flooded paddy test; format: in vivo, Oryza sativa; details: 250 g ai/ha, applied to paddy water, visual rating after 13 to 14 days, scale 0 to 100 (0 no effect, 100 complete control)
In short: as §2

oat, wild [17] = test: Test C postemergence; format: in vivo, Avena fatua; details: 10 days
In short: as §1

wheat [18] = test: Test C preemergence; format: in vivo, Triticum aestivum; details: 0 to 100 scale (0 no effect, 100 complete control)
In short: as §1

soybean [19] = test: Test C postemergence; format: in vivo, Glycine max; details: 10 days
In short: as §1

corn [20] = test: Test C postemergence; format: in vivo, Zea mays; details: 10 days
In short: as §1

ryegrass, Italian [21] = test: Test C preemergence; format: in vivo, Lolium multiflorum; details: 0 to 100 scale (0 no effect, 100 complete control)
In short: as §1

soybean [22] = test: Test C preemergence; format: in vivo, Glycine max; details: 0 to 100 scale (0 no effect, 100 complete control)
In short: as §1

ducksalad = test: Test D flooded paddy test; format: in vivo, Heteranthera limosa; details: 250 g ai/ha, applied to paddy water, visual rating after 13 to 14 days, scale 0 to 100 (0 no effect, 100 complete control)
In short: as §2

corn [23] = test: Test C preemergence; format: in vivo, Zea mays; details: 0 to 100 scale (0 no effect, 100 complete control)
In short: as §1

[24] = Preemergence, 500 g ai/ha, visual rating after 10 days
[25] = Test C, preemergence, 125 g ai/ha
[26] = 125 g ai/ha, postemergence, 0 to 100 scale, 0 no effect, 100 complete control
[27] = Postemergence, 500 g ai/ha, visual 0 to 100 scale (0 no effect, 100 complete control)

Structure (SMILES): Cc1ccc(-n2cnc(C[S+](C)[O-])n2)cc1C(=O)N1C[C@H](C)Oc2c(Cl)cccc21 (stereo partly drawn) [Compound 224]
- Plant response rating, Kochia (kochia [1]; [24]): 70
- Kochia plant response rating (kochia [1]; [25]): 40
- Plant response rating, Ryegrass, Italian (ryegrass, Italian [2]; [26]): 50
- Plant response rating, Ryegrass, Italian (ryegrass, Italian [2]; [27]): 100
- Plant response rating, Barnyardgrass (barnyardgrass [3]; [26]): 10
- Plant response rating, Barnyardgrass (barnyardgrass [3]; [27]): 50
- Plant response rating, Pigweed, Palmer (pigweed, palmer [4]; [24]): 100
- Pigweed, Palmer plant response rating (pigweed, palmer [4]; [25]): 90
- Plant response rating, Barnyardgrass (Flood) (barnyardgrass [5]): 10
- Plant response rating, Foxtail, Green (green foxtail [6]; [26]): 20
- Plant response rating, Foxtail, Green (green foxtail [6]; [27]): 70
- Plant response rating, Galium (galium): 100
- Plant response rating, Sedge, Umbrella (Flood) (sedge, umbrella): 98
- Plant response rating, Blackgrass (blackgrass [7]; [26]): 30
- Plant response rating, Blackgrass (blackgrass [7]; [27]): 70
- Plant response rating, Ragweed (ragweed [8]; [26]): 50
- Plant response rating, Ragweed (ragweed [8]; [27]): 70
- Plant response rating, Oat, Wild (oat, wild [9]; [24]): 90
- Oat, Wild plant response rating (oat, wild [9]; [25]): 30
- Plant response rating, Ragweed (ragweed [10]; [24]): 40
- Ragweed plant response rating (ragweed [10]; [25]): 0
- Plant response rating, Kochia (kochia [11]; [26]): 90
- Plant response rating, Kochia (kochia [11]; [27]): 90
- Plant response rating, Barnyardgrass (barnyardgrass [12]; [24]): 90
- Barnyardgrass plant response rating (barnyardgrass [12]; [25]): 40
- Plant response rating, Horseweed (horseweed; [26]): 30
- Plant response rating, Horseweed (horseweed; [27]): 50
- Plant response rating, Pigweed, Palmer (pigweed, palmer [13]; [26]): 90
- Plant response rating, Pigweed, Palmer (pigweed, palmer [13]; [27]): 90
- Plant response rating, Blackgrass (blackgrass [14]; [24]): 70
- Blackgrass plant response rating (blackgrass [14]; [25]): 20
- Plant response rating, Wheat (wheat [15]; [26]): 20
- Plant response rating, Wheat (wheat [15]; [27]): 60
- Plant response rating, Foxtail, Green (green foxtail [16]; [24]): 100
- Foxtail, Green plant response rating (green foxtail [16]; [25]): 100
- Plant response rating, Rice (Flood) (rice): 15
- Plant response rating, Oat, Wild (oat, wild [17]; [26]): 50
- Plant response rating, Oat, Wild (oat, wild [17]; [27]): 70
- Plant response rating, Wheat (wheat [18]; [24]): 50
- Wheat plant response rating (wheat [18]; [25]): 0
- Plant response rating, Soybean (soybean [19]; [26]): 100
- Plant response rating, Soybean (soybean [19]; [27]): 100
- Plant response rating, Corn (corn [20]; [26]): 50
- Plant response rating, Corn (corn [20]; [27]): 90
- Plant response rating, Ryegrass, Italian (ryegrass, Italian [21]; [24]): 80
- Ryegrass, Italian plant response rating (ryegrass, Italian [21]; [25]): 70
- Plant response rating, Soybean (soybean [22]; [24]): 100
- Soybean plant response rating (soybean [22]; [25]): 60
- Plant response rating, Ducksalad (Flood) (ducksalad): 95
- Plant response rating, Corn (corn [23]; [24]): 20
- Corn plant response rating (corn [23]; [25]): 0
